Experimental data: patent US20250057930A1, “ANAPLASTIC LYMPHOMA KINASE (ALK) CANCER VACCINES AND METHODS OF USE THEREOF” (The Children's Medical Center Corporation, priority 2022, published 2025)

Assays:
H2-Dd expression = assay: H2-Dd surface expression on MHC-I^low lung tumor escaper cell lines (flow cytometry); format: cell-based, mouse; conditions: H2-Dd-downregulated cell lines; ADU-S100 50 μM, 24 h
Protocol: To uncover the mechanisms that would explain this resistance to treatment, ex vivo escaped tumors were isolated from each treatment group. […] To understand whether the observed H2-Dd downregulation was sufficient to impair tumor rejection, tumor cells with high H2-Dd isolated from untreated mice or tumor cells with low H2-Dd isolated from ALK vaccinated mice and treated with ICI were injected. Treatment with ICI induced rejection of tumors with high H2-Dd expression (FIGS. 6D-6E), consistent with previous experiments (FIG. 3E), but not of escaped tumors with low H2-Dd expression (FIGS. 6F-6G). Finally, it was asked whether H2-Dd expression could be restored by Stimulator of IFN genes (STING) signaling that can increase MHC-I expression in other models of lung cancer.
Allophycocyanin (APC)-conjugates H-2D^d-[…] (SEQ ID NO: 22) Dextramer reagents were obtained from Immudex (Immudex, Denmark). […] After washing step, cells were ready to be acquired. When referred, also PD-1 (clone RMP1-30; BV421-PD-1, BD Pharmingen™, USA) expression was evaluated together with dextramer staining, being added together with FITC-CD8. H2-Dd MHC-I expression was measured on relapsed tumors after treatment. […] All cells were acquired in a BD Celesta flow cytometer (BD Bioscience, USA) and analyzed by using the FlowJo software (FlowJo LCC, USA). […]

[1] = test system: ALK-rearranged (ALK^+) NSCLC; conditions: patients with resistance to earlier ALK TKIs; cited from earlier work
[2] = test system: hEML4-ALK Tg mice (ALK^+ lung tumors); assay: Lung tumor volume by MRI and survival in hEML4-ALK Tg mice; conditions: crizotinib 40 mg/kg or lorlatinib 2 mg/kg, MRI
From the text: (§2) EML4-ALK transgenic (Tg) mice, which express the human EML4-ALK (E13;A20, human variant 1) driven by the SP-C promoter (henceforth referred as hEML4-ALK Tg mice), and BALB/c mice infected intratracheally with adenovirus carrying the CRISPR/Cas9 system to induce in vivo the Eml4-Alk rearrangement (E14;A20, mouse variant 1) (henceforth referred as Ad-EA mice). […] In these models, magnetic resonance imaging (MRI) (FIG. 1B) allowed precise cohort stratification and tumor follow-up.
Anatomical T2-weighted coronal images were acquired with a respiratory-triggered multislice fast spin echo RARE sequence (TR=4 s, TE=4.5 ms, Rare Factor (RF)=16, FOV=30 mm^2, Matrix=256×256, slices=16-20, slice thickness=1 mm, 2 averages, providing an in-plane spatial resolution of 117 μm) with a 7T MRI (Bruker Advance III, Ettlingen, Germany) scanner equipped with a quadrature 1H coil. Animals were anesthetized by intraperitoneal injection of a combination of ROMPUN® (Bayer, 5 mg/kg) and ZOLETIL 100® (Laboratoires Virbac, 20 mg/kg); breathing was monitored during acquisition of the MR images with a respiratory sensor (SA Instruments, Inc.). Tumor volumes and numbers of masses calculations were performed by manual segmentation (slice by slice contouring) with ITK-SNAP software (www.itksnap.org). […]

[3] = test system: Ad-EA mice (mEml4-Alk rearranged lung tumor); assay: Lung tumor volume by MRI and survival in Ad-EA mice; format: in vivo, mouse
From the text: as §2
Anatomical T2-weighted coronal images were acquired with a respiratory-triggered multislice fast spin echo RARE sequence (TR=4 s, TE=4.5 ms, Rare Factor (RF)=16, FOV=30 mm^2, Matrix=256×256, slices=16-20, slice thickness=1 mm, 2 averages, providing an in-plane spatial resolution of 117 μm) with a 7T MRI (Bruker Advance III, Ettlingen, Germany) scanner equipped with a quadrature 1H coil. Animals were anesthetized by intraperitoneal injection of a combination of ROMPUN® (Bayer, 5 mg/kg) and ZOLETIL 100® (Laboratoires Virbac, 20 mg/kg); breathing was monitored during acquisition of the MR images with a respiratory sensor (SA Instruments, Inc.). Tumor volumes and numbers of masses calculations were performed by manual segmentation (slice by slice contouring) with ITK-SNAP software (www.itksnap.org).
Syngeneic mice models transplanted with tumor cells were treated intraperitoneally with 200 μg of anti-PD-1 and/or anti-CTLA-4 (clone 9D9, Bioxcell), on days 3, 6, and 9 post-tumor transplantation (3 injections/per mouse).

mEml4-Alk cell lines = assay: Cell viability assay (CellTiter-Glo) in mEml4-Alk cell lines; format: cell-based; conditions: Mus musculus, mEml4-Alk^1, 72 h
Protocol: (§1) “[…]” is disclosed as SEQ ID NO: 22. […] “[…]” is disclosed as SEQ ID NO: 22.
Cell viability assay was performed in all immortalized mouse cell lines by using CellTiter-Glo (Promega, USA) according to the manufacturer's instructions. […] After 72 h, CellTiter-Glo reagent was added to each well and luminescence output data were taken by GloMax-Multi Detection System (Promega, USA). The correspondent IC50 value for each ALK inhibitor was calculated with GraphPad Prism 9 software (GraphPad, USA).

[4] = test system: mEml4-Alk cell line tumors; assay: mEml4-Alk syngeneic tumors in BALB/c mice; format: in vivo; conditions: mEml4-Alk cell lines in syngeneic BALB/c mice
Protocol: as §1
To determine whether these differences in anaplastic lymphoma kinase (ALK)-specific CD8^+ T-cell responses translated into a different anti-tumor activity, mice were treated with either flank or lung tumors with immune checkpoint inhibitors (ICIs). […] Tumor-free mice were then rechallenged to assess ALK-specific CD8^+ T-cell memory response. […] In contrast to flank tumors, ICI was ineffective against Eml4-Alk^[…]-1 (“[…]” disclosed as SEQ ID NO: 22) lung tumors as measured by overall survival (FIG. 3I), and lung tumor histology (FIG. 3J). Systemic ALK-specific CD8^+ T-cell response was analyzed in mice bearing flank or lung tumors. […] It was concluded that the robustness of the spontaneous ALK-specific CD8^+ T-cell response depended on tumor localization and determined the response to immune checkpoint inhibitors (ICIs).
For syngeneic subcutaneous tumor transplantation, a total of 1×10^6 immortalized mouse cells were subcutaneously inoculated into the right dorsal flanks of 8-12 week-old BALB/c mice in 100 μL of phosphate-buffered saline (PBS). […] Tumor volume was measured by caliper measurements every 3 days in a blinded fashion and calculated according to the following equation: H. W^2/2. […]

Row | SMILES | H2-Dd expression (H2-Dd expression) | average disease control [1] [months] | tumor response at the end of treatment [2] | tumor response at the end of treatment ([3]; crizotinib 40 mg/kg or lorlatinib 2 mg/kg, MRI) | tumor response by MRI, prolonged treatment ([3]; lorlatinib up to 8 weeks, tumors relapsed upon suspension) | IC50 (mEml4-Alk cell lines) [nM] | tumor sensitivity in vivo [4]
1 | Nc1ncnc2c1ncn2[C@@H]1O[C@@H]2CO[P@](=O)(S)O[C@@H]3[C@H](O)[C@@H](CO[P@@](=O)(S)O[C@H]2[C@H]1O)O[C@H]3n1cnc2c(N)ncnc21 [ADU-S100, reference compound] | strongly upregulating H2-Dd expression | – | – | – | – | – | –
2 | C[C@H]1Oc2cc(cnc2N)-c2c(nn(C)c2C#N)CN(C)C(=O)c2ccc(F)cc21 [lorlatinib] | – | 7 | almost complete regression of tumors | almost complete regression of tumors | complete remission by MRI | 1.17 | marked sensitivity
